Measurements from EP0386258A1, “TETRAHYDROPYRIDINE DERIVATIVES” (Asahi Kasei Kabushiki Kaisha, priority 1988, dated 1990).
Counter-ions that a name gives are not always drawn.

What was measured:
[1] = tested on: akinesia of mice during forced swimming; assay: mill wheel test (forced swimming), psychoanaleptic activity; type: in vivo
Experimental: This test was conducted in the following manner according to a method described in S. Nomura et al., Eur. J. Pharmacol., 83, 171 - 175 (1982).
Activities of each drug on the akinesia of mice during forced swimming were examined by a mill wheel test. Now the meaning of this test will be described. The akinesia observed during forced swimming of mice may be regarded as emotional disturbance since the animals resign escaping from the narrow environment (device) as the result of learning. It has been known that this akinesia can be shortened by drugs having psychoanaleptic effects such as antidepressants or MAO inhibitors. Namely, each drug was orally administered to a mouse. 40 minutes after the administration, the mouse was introduced into a water tank provided with a mill wheel and contained water at 25 °C. Then, the number of rotations of the wheel was counted throughout the observation period (6 minutes). However, P-CC2 was subcutaneously administered to avoid decomposition in digestive organ and the examination was conducted for 15 minutes thereafter (see Margaret M. Schweri, Joseph V. Martin, Wallace B. Mendelson, James E. Barrett, Steven M. Paul and Phil Skolnick, Life Science, 1505-1510, 33 (1983) and P. Skolnick, M. M. Schweri, S. M. Paul, J. V. Martin and W. B. Mendelson, Life Science, 2439-2445, 32 (1983)).

[2] = tested on: male Wister rats; assay: water lick conflict test, antianxiety activity (shocked number); type: in vivo; settings: electric shocks within 5 minutes, no-drug rat defined as 100 (n = 5)
From the text: (§1) The antianxiety activity and learning improvement activity of the compounds of the present invention were examined by using male Wister rats aged 6 weeks by a water lick conflict test by reference to a method described by Vogel J. R., Beer B. and Clody D. E. described in Psvcho^pharmacolo^qia, 1 - 7, 21 (1971).
(§2) In this test, rats having abstained from water were used and an electric shock was applied to the animals every time they drank water to bring the rats into an anxious state. Thus the activity of medicaments to the rats were determined.
Rats, having abstained from water for 24 hours prior to the test, were allowed to access to water. After 4 to 5 hours, a drug was administered to the animals. After a definite treatment period, the test was initiated. The shocked number means the number of electric shocks applied to the rats within 5 minutes after initially allowing them to access to water. […] That is, an increase in the shocked number means that the antianxiety activity is increased.

[3] = tested on: male Wister rats; assay: water lick conflict test, learning improvement activity (latent time); type: in vivo; settings: time until first drinking water, average of no-drug rats defined as 100 (n = 5)
From the text: as §1, §2
This test was conducted simultaneously with the measurement of the antianxiety activity (2) and aims at measuring the latent time when the rats abstinence from water first began to drink water.
A longer latent time means the higher learning improvement activity.

[4] = tested on: Wistar rats; assay: subacute toxicity, oral administration for 35 days; settings: rat, in vivo
Experimental: (§3) Subacute toxicities of N-(2-aminoethyl)benzo[b]thieno-[2,3-c]pyridine-3-carboamide (A-6) and N-cyclohexyl-1,2,3,4-tetrahydrobenzo[b]thieno[2,3-c]pyridine-3-carboamide (A-9) were tested by orally administering these compounds to Wistar rats for 35 days. The test was conducted in the following manner.
(§4) Each compound was compulsory orally administered to Wistar SPF rats once a day between 9.00 a.m. to 11:30 a.m. by using a 2 ml or 5 ml disposable syringe and a rat gastric sound for 35 days continuously. Syringes were exchanged for each dose and for each compound. The administration period was determined by referring the initial day of the administration as to 0 day.

[5] = subacute toxicity, oral administration for 35 days; settings: rat, in vivo
Experimental: as §3, §4

[6] = 60 mg/kg orally, 40 minutes after administration, observation period 6 minutes, water at 25 °C

SMILES	Numbers of Rotations of Wheel [1, 6]	Shocked Number ([2]; 40 mg/kg P.O.)	Latent Time ([3]; 40 mg/kg P.O.)	other results
O=C(c1cc2c(cn1)sc1ccccc12)N1CCCCC1 [Compound A-4, 1-(benzo[b]thieno[2,3-c]pyridine-3-carbonyl)piperidine]	24.7±3.9			
CCCCCCNC(=O)C1Cc2c(sc3ccccc23)CN1 (centres unmarked) [Compound A-8, N-hexyl-1,2,3,4-tetrahydrobenzo[b]-thieno[2,3-c]pyridine-3-carboamide]	20.9±7.6	111.8±28.6	249±36.6	
CCOC(=O)C1Cc2c(sc3ccccc23)CN1 (centres unmarked) [Compound A-2, l,2,3,4-tetrahydrobenzo[b]thieno[2,3-c]pyridine-3-carboxylic acid ethyl ester]	26.5±2.9			
O=C(c1cc2c(cn1)sc1ccccc12)N1CCCNCC1 [Compound A-3, hexahydro-l-(benzo[b]-thieno[2,3-c]pyridine-3-carbonyl)-lH-1,4-diazepine]	22.4±6.7			
NCCNC(=O)c1cc2c(cn1)sc1ccccc12 [Compound A-6, N-(2-aminoethyl)benzo[b]thieno[2,3-c]pyridine-3-carboamide]	25.4±9.1			Toxic (lethal) Dose [4]: 200 mg/kg; NOAEL at 840 h ([5]; Safe Dose): 50 mg/kg; NOAEL at 840 h ([5]; Subeffective Dose): 50 mg/kg
O=C(c1cc2c(cn1)sc1ccccc12)N1CCOCC1 [Compound A-5, 4-(benzo[b]thieno[2,3-c]pyridine-3-carbonyl)morpholine]	21.3±4.0			
CCNC(=O)C1Cc2c(sc3ccccc23)CN1 (centres unmarked) [Compound A-7, N-ethyl-1,2,3,4-tetrahydrobenzo[b]thieno(2,3-c]pyridine-3-carboamide]	19.3±8.1	127.1±31.5	232±34.7	
CCOC(=O)c1cc2c(cn1)[nH]c1ccccc12 [β-CCE, β-carboline-3-carboxylic acid ethyl ester]		82.9±20.0	312±38.2	Numbers of Rotations of Wheel ([1]; 10 mg/kg subcutaneously, examination 15 minutes thereafter): 23.6±4.1
Clc1ccc2sc3c(c2c1)CCNC3 [Compound C-1, 6-chloro-1,2,3,4-tetrahydrobenzo[b]-thieno[2,3-c]pyridine]	24.3±4.3	104.3±28.6	128±19.6	
O=C(NC1CCCCC1)C1Cc2c(sc3ccccc23)CN1 (centres unmarked) [Compound A-9, N-cyclohexyl-1,2,3,4-tetrahydrobenzo[b]thieno-[2,3-c]pyridine-3-carboamide hydrochloride]	37.1±8.0			Toxic (lethal) Dose [4]: 800 mg/kg; NOAEL at 840 h ([5]; Safe Dose): 200 mg/kg; NOAEL at 840 h ([5]; Subeffective Dose): 50 mg/kg; Shocked Number ([2]; 30 mg/kg P.O.): 389±41; Latent Time ([3]; 30 mg/kg P.O.): 350±32
CCOC(=O)c1cc2c(cn1)sc1ccccc12 [Compound A-1, benzo[b]thieno[2,3-c]pyridine-3-carboxylic acid ethyl ester]	23.4±6.8	117.1±25.7	132±29.9	
